{"source": "patent US12497394B2", "about": "“Fused-cyclic pyrazolone formamide compound and preparation method therefor, pharmaceutical composition and use thereof” (SHANGHAI INSTITUTE OF MATERIA MEDICA, CHINESE ACADEMY OF …, priority 2018, dated 2025)", "assay_type_in_all_cases": "biochemical", "key": {"FRK/PTK5": {"target": "FRK/PTK5 (Homo sapiens, UniProt P42685)", "sequence (P42685 whole entry)": "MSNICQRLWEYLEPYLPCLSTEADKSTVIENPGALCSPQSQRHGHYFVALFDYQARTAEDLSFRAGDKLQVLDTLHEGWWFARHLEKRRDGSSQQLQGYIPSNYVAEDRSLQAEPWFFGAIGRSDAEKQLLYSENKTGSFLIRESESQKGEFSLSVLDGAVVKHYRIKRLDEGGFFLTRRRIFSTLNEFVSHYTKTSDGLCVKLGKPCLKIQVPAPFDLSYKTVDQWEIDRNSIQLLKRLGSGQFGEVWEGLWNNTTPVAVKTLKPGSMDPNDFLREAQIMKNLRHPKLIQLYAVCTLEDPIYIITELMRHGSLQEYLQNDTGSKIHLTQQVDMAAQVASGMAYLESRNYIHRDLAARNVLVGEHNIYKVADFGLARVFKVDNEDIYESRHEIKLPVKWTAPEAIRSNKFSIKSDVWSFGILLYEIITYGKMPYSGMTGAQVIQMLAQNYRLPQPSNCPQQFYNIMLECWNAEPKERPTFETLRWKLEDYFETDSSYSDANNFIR", "assay": "Kinase profile screen: FRK/PTK5", "details": "50 nM", "from_the_text": "(§1) Experimental Example 2: Study on the Selectivity of the Kinase Profile of the Compound Due to compound's potent inhibitory activity against AXL, we selected one of the compounds, DC621044, to screen 369 kinase profiles in order to investigate the compound's selectivity to the kinase profile."}, "MER": {"target": "MER (Homo sapiens, UniProt Q12866)", "sequence (Q12866 21-999)": "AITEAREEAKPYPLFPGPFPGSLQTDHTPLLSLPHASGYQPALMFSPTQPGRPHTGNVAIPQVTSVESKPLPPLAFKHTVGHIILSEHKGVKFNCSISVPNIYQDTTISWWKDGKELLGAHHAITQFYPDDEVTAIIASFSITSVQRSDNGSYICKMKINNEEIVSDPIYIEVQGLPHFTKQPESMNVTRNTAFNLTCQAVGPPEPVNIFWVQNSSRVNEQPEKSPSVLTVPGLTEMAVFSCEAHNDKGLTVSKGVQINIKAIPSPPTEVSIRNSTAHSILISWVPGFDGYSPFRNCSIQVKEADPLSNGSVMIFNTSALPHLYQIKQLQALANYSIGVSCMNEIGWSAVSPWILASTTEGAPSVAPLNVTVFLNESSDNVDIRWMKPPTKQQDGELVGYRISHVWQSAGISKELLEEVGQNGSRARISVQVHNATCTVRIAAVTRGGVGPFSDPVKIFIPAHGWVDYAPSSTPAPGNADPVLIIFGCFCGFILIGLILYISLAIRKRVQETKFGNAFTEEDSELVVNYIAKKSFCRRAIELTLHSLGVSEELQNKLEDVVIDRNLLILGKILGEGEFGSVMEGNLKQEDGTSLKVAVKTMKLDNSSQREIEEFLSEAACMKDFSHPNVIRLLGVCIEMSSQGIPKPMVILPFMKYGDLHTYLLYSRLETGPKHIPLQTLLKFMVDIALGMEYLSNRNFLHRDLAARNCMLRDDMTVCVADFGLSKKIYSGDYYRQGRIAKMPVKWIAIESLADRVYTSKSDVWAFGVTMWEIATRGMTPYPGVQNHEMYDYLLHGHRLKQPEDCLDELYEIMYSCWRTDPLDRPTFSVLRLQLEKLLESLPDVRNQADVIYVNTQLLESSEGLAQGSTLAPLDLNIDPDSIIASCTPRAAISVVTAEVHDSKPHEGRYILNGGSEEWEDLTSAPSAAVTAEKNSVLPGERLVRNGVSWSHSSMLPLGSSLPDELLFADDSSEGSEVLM", "assay": "Kinase profile screen: MER", "details": "50 nM", "from_the_text": "as §1"}, "369 kinases": {"system": "369 kinases", "assay": "Selectivity of the kinase profile (369 kinases)", "details": "369 kinases screened", "from_the_text": "as §1"}, "BLK": {"target": "BLK (Homo sapiens, UniProt P51451)", "sequence (P51451 whole entry, species assumed)": "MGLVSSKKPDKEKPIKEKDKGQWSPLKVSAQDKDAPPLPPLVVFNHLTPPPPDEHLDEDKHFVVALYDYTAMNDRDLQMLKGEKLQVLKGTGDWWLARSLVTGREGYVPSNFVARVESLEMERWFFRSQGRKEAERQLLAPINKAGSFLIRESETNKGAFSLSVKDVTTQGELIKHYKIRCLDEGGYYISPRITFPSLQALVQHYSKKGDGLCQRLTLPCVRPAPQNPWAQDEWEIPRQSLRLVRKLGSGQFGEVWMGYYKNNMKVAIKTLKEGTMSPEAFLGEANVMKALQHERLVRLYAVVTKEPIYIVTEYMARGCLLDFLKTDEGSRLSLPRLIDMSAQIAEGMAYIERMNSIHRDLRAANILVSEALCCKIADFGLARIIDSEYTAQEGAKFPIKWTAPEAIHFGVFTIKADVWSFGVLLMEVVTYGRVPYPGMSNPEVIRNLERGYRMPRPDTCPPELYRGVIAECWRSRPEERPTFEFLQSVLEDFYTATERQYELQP", "assay": "Kinase profile screen: BLK", "details": "50 nM", "from_the_text": "as §1"}, "FLT3": {"target": "FLT3 (Homo sapiens, UniProt P36888)", "assay": "Kinase profile screen: FLT3", "details": "50 nM", "from_the_text": "as §1"}, "MLK2/MAP3K10": {"target": "MLK2/MAP3K10 (Homo sapiens, UniProt Q02779)", "assay": "Kinase profile screen: MLK2/MAP3K10", "details": "50 nM", "from_the_text": "as §1"}, "EGFR": {"target": "EGFR (Homo sapiens, UniProt P00533)", "sequence (P00533 25-1210, species assumed)": "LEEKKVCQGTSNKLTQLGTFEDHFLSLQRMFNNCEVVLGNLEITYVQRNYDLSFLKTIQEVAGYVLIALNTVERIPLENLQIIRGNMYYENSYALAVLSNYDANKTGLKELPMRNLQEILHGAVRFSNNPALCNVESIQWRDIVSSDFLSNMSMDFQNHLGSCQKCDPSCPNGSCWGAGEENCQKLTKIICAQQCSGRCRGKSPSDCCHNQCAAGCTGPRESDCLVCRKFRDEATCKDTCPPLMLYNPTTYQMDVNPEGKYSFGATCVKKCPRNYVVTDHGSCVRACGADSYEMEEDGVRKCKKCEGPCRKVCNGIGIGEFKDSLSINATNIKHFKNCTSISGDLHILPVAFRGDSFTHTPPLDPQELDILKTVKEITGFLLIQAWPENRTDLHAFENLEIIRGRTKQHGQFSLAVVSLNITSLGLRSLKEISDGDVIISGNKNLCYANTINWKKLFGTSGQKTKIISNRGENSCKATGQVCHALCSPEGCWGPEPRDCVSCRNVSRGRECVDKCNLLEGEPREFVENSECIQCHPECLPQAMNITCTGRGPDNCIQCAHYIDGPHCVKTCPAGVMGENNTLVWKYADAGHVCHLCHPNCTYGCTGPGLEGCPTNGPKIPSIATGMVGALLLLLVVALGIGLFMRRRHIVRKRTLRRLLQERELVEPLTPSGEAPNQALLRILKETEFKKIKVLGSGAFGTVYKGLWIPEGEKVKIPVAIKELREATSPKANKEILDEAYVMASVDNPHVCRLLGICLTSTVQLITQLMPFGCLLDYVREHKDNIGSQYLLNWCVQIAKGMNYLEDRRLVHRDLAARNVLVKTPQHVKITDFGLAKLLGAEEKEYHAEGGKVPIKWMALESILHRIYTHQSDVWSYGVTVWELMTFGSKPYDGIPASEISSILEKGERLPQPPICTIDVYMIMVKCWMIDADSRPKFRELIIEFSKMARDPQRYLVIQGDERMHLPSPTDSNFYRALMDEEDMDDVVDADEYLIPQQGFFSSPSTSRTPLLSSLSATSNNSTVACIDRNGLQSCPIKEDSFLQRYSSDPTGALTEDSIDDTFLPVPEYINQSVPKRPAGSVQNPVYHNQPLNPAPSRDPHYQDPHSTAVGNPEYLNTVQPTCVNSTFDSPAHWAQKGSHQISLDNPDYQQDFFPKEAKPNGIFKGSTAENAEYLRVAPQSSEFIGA", "assay": "Kinase profile screen: EGFR", "details": "50 nM", "from_the_text": "as §1"}, "TRKC": {"target": "TRKC (Homo sapiens, UniProt Q16288)", "sequence (Q16288 32-839, species assumed)": "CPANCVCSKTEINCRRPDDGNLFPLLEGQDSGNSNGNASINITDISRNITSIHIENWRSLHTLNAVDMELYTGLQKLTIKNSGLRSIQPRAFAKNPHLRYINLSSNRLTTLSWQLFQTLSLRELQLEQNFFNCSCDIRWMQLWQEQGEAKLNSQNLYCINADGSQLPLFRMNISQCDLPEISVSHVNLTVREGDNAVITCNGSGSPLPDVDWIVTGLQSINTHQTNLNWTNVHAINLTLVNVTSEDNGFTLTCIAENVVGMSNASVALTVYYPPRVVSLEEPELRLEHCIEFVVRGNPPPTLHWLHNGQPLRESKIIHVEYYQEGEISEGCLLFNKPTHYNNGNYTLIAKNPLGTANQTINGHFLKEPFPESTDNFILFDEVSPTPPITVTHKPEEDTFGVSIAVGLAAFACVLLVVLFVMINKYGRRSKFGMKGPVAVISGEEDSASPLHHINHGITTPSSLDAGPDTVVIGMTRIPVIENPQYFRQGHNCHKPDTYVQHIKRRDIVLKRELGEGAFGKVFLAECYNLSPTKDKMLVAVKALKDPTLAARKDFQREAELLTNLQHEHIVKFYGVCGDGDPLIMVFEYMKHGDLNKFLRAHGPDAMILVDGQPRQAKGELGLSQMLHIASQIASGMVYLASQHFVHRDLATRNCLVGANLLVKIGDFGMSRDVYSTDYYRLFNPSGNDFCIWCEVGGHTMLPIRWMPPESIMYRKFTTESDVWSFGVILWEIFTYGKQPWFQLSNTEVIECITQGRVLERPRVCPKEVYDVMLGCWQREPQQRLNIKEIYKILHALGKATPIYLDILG", "assay": "Kinase profile screen: TRKC", "details": "50 nM", "from_the_text": "as §1"}, "LCK": {"target": "LCK (Homo sapiens, UniProt P06239)", "sequence (P06239 whole entry, species assumed)": "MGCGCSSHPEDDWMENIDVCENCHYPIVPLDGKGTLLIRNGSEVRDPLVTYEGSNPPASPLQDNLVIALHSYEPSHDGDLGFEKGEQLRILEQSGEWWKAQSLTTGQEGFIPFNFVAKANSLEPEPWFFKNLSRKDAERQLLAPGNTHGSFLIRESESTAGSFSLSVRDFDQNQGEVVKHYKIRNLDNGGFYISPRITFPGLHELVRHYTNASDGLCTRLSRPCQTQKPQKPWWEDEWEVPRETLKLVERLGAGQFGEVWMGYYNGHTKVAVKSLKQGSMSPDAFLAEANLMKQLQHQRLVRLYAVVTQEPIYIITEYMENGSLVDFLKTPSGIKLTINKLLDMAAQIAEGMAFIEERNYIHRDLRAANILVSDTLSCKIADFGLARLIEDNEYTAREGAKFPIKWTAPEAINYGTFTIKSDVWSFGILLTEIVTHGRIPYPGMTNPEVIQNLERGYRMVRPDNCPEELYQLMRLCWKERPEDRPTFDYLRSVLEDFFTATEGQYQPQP", "assay": "Kinase profile screen: LCK", "details": "50 nM", "from_the_text": "as §1"}, "TYRO3/SKY": {"target": "TYRO3/SKY (Homo sapiens, UniProt Q06418)", "assay": "Kinase profile screen: TYRO3/SKY", "details": "50 nM", "from_the_text": "as §1"}, "FGR": {"target": "FGR (Homo sapiens, UniProt P09769)", "sequence (P09769 whole entry, species assumed)": "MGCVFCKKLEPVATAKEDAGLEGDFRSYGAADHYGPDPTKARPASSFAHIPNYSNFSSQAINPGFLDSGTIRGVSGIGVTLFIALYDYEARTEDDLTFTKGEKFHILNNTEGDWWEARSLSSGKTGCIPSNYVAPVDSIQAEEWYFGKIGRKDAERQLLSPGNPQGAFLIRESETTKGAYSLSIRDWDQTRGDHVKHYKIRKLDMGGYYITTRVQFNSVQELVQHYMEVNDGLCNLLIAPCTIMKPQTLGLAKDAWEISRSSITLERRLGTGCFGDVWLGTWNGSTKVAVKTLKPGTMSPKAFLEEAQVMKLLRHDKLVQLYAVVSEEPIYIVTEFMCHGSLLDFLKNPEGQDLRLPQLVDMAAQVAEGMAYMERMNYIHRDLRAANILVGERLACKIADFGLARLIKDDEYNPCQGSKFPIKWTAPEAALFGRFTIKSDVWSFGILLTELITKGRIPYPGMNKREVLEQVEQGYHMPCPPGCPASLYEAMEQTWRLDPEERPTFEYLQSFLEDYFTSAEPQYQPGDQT", "assay": "Kinase profile screen: FGR", "details": "50 nM", "from_the_text": "as §1"}}, "data": [{"smiles": "COCCOc1cc2ncnc(Oc3ccc(NC(=O)c4c5n(n(-c6ccc(F)cc6)c4=O)CCCC5)cc3F)c2cc1OCCOC", "note": "[DC621044, N-(4-((6,7-bis(2-methoxyethoxy)quinazolin-4-yl)oxy)-3-fluorophenyl)-1-(4-fluorophenyl)-2-oxo-1,2,4,5,6,7-hexahydropyrazolo[1,5-a]pyridine-3-formamide]", "values": [{"measurement": "inhibition at 0.05 µM", "setting": "FRK/PTK5; the first time", "value": 17.1, "unit": "%"}, {"measurement": "inhibition at 0.05 µM", "setting": "FRK/PTK5; the second time", "value": 17.7, "unit": "%"}, {"measurement": "inhibition at 0.05 µM", "setting": "MER; the first time", "value": 99.4, "unit": "%"}, {"measurement": "inhibition at 0.05 µM", "setting": "MER; the second time", "value": 99.5, "unit": "%"}, {"measurement": "kinase profile selectivity (in words)", "setting": "369 kinases", "value": "good selectivity for AXL kinase"}, {"measurement": "inhibition at 0.05 µM", "setting": "BLK; the first time", "value": 29.5, "unit": "%"}, {"measurement": "inhibition at 0.05 µM", "setting": "BLK; the second time", "value": 29.9, "unit": "%"}, {"measurement": "inhibition at 0.05 µM", "setting": "FLT3; the first time", "value": 28, "unit": "%"}, {"measurement": "inhibition at 0.05 µM", "setting": "FLT3; the second time", "value": 29.3, "unit": "%"}, {"measurement": "inhibition at 0.05 µM", "setting": "MLK2/MAP3K10; the first time", "value": 22.4, "unit": "%"}, {"measurement": "inhibition at 0.05 µM", "setting": "MLK2/MAP3K10; the second time", "value": 23.9, "unit": "%"}, {"measurement": "inhibition at 0.05 µM", "setting": "EGFR; the first time", "value": 17.9, "unit": "%"}, {"measurement": "inhibition at 0.05 µM", "setting": "EGFR; the second time", "value": 18.6, "unit": "%"}, {"measurement": "inhibition at 0.05 µM", "setting": "TRKC; the first time", "value": 23.8, "unit": "%"}, {"measurement": "inhibition at 0.05 µM", "setting": "TRKC; the second time", "value": 24.1, "unit": "%"}, {"measurement": "inhibition at 0.05 µM", "setting": "LCK; the first time", "value": 52.8, "unit": "%"}, {"measurement": "inhibition at 0.05 µM", "setting": "LCK; the second time", "value": 53.1, "unit": "%"}, {"measurement": "inhibition at 0.05 µM", "setting": "TYRO3/SKY; the first time", "value": 41, "unit": "%"}, {"measurement": "inhibition at 0.05 µM", "setting": "TYRO3/SKY; the second time", "value": 41.2, "unit": "%"}, {"measurement": "inhibition at 0.05 µM", "setting": "FGR; the first time", "value": 41.2, "unit": "%"}, {"measurement": "inhibition at 0.05 µM", "setting": "FGR; the second time", "value": 41.2, "unit": "%"}]}]}
